# Article PMC5529566, “The cryo-EM structure of gastric H^+,K^+-ATPase with bound BYK99, a high-affinity member of K^+-competitive, imidazo[1,2-a]pyridine inhibitors” (Scientific Reports, 2017)
# Legend:
# [1] = biological target: T1, H^+,K^+-ATPase WT (Sus scrofa, UniProt P19156); test: K^+-competitive inhibition of H^+,K^+-ATPase activity, 96-well ATPase assay, wild-type; format: biochemical, pig; conditions: WT
# T1 construct: made in house; host or cells: HEK293S GnT1- cells (BacMam baculovirus transduction); permeabilised membrane fractions
# [2] = biological target: H^+,K^+-ATPase D136A (Sus scrofa, UniProt P19156, D137A); test: ATPase assay, D136A mutant
# [3] = biological target: H^+,K^+-ATPase D136L (Sus scrofa, UniProt P19156, D137L); test: ATPase assay, D136L mutant
# [4] = biological target: H^+,K^+-ATPase D136I (Sus scrofa, UniProt P19156, D137I); test: ATPase assay, D136I mutant
# [5] = biological target: H^+,K^+-ATPase D136F (Sus scrofa, UniProt P19156, D137F); test: ATPase assay, D136F mutant
# [6] = biological target: H^+,K^+-ATPase D137A (Sus scrofa, UniProt P19156, D138A); test: ATPase assay, D137A mutant
# [7] = biological target: H^+,K^+-ATPase D137L (Sus scrofa, UniProt P19156, D138L); test: ATPase assay, D137L mutant
# [8] = biological target: H^+,K^+-ATPase D137I (Sus scrofa, UniProt P19156, D138I); test: ATPase assay, D137I mutant
# [9] = biological target: H^+,K^+-ATPase D137F (Sus scrofa, UniProt P19156, D138F); test: ATPase assay, D137F mutant
# [10] = biological target: H^+,K^+-ATPase N138A (Sus scrofa, UniProt P19156, N139A); test: ATPase assay, N138A mutant
# [11] = biological target: H^+,K^+-ATPase N138L (Sus scrofa, UniProt P19156, N139L); test: ATPase assay, N138L mutant
# [12] = biological target: H^+,K^+-ATPase N138I (Sus scrofa, UniProt P19156, N139I); test: ATPase assay, N138I mutant
# [13] = biological target: H^+,K^+-ATPase N138F (Sus scrofa, UniProt P19156, N139F); test: ATPase assay, N138F mutant
# [14] = biological target: H^+,K^+-ATPase L139A (Sus scrofa, UniProt P19156, L140A); test: ATPase assay, L139A mutant
# [15] = biological target: H^+,K^+-ATPase L139I (Sus scrofa, UniProt P19156, L140I); test: ATPase assay, L139I mutant
# [16] = biological target: H^+,K^+-ATPase L139F (Sus scrofa, UniProt P19156, L140F); test: ATPase assay, L139F mutant
# [17] = biological target: H^+,K^+-ATPase Y140A (Sus scrofa, UniProt P19156, Y141A); test: ATPase assay, Y140A mutant
# [18] = biological target: H^+,K^+-ATPase Y140L (Sus scrofa, UniProt P19156, Y141L); test: ATPase assay, Y140L mutant
# [19] = biological target: H^+,K^+-ATPase Y140I (Sus scrofa, UniProt P19156, Y141I); test: ATPase assay, Y140I mutant
# [20] = biological target: H^+,K^+-ATPase Y140F (Sus scrofa, UniProt P19156, Y141F); test: ATPase assay, Y140F mutant
# [21] = biological target: H^+,K^+-ATPase L141I (Sus scrofa, UniProt P19156, L142I); test: ATPase assay, L141I mutant
# [22] = biological target: H^+,K^+-ATPase A335G (Sus scrofa, UniProt P19156, A336G); test: ATPase assay, A335G mutant
# [23] = biological target: H^+,K^+-ATPase Y799A (Sus scrofa, UniProt P19156, Y800A); test: ATPase assay, Y799A mutant
# [24] = biological target: H^+,K^+-ATPase Y799F (Sus scrofa, UniProt P19156, Y800F); test: ATPase assay, Y799F mutant
# [25] = biological target: H^+,K^+-ATPase L809F (Sus scrofa, UniProt P19156, L810F); test: ATPase assay, L809F mutant
# [26] = biological target: H^+,K^+-ATPase A335C/C813A (Sus scrofa, UniProt P19156, A336C/C814A); test: ATPase assay, A335C/C813A mutant
# [27] = biological target: H^+,K^+-ATPase (Sus scrofa, UniProt P19156); test: Dose-dependent inhibition of H^+,K^+-ATPase activity in the presence of 10 mM KCl
# Description: Reactions were initiated by incubating at 37 °C using a thermal cycler, and maintained for 1 to 5 h (depending on the activity). Reactions were terminated by withdrawing 40 μL from the 80 μL reactant, and mixing with 80 μL of stop solution comprising 6% ascorbic acid and 2% ammonium molybdate in 1 N HCl, followed by the addition of 120 μL of 2% sodium arsenate, 2% sodium citrate, and 2% acetic acid. The amount of released inorganic phosphate was determined colorimetrically[39] from absorbance at 850 nm by the microplate reader (TECAN).
# Sequence of H^+,K^+-ATPase D137I (P19156 whole entry D138I): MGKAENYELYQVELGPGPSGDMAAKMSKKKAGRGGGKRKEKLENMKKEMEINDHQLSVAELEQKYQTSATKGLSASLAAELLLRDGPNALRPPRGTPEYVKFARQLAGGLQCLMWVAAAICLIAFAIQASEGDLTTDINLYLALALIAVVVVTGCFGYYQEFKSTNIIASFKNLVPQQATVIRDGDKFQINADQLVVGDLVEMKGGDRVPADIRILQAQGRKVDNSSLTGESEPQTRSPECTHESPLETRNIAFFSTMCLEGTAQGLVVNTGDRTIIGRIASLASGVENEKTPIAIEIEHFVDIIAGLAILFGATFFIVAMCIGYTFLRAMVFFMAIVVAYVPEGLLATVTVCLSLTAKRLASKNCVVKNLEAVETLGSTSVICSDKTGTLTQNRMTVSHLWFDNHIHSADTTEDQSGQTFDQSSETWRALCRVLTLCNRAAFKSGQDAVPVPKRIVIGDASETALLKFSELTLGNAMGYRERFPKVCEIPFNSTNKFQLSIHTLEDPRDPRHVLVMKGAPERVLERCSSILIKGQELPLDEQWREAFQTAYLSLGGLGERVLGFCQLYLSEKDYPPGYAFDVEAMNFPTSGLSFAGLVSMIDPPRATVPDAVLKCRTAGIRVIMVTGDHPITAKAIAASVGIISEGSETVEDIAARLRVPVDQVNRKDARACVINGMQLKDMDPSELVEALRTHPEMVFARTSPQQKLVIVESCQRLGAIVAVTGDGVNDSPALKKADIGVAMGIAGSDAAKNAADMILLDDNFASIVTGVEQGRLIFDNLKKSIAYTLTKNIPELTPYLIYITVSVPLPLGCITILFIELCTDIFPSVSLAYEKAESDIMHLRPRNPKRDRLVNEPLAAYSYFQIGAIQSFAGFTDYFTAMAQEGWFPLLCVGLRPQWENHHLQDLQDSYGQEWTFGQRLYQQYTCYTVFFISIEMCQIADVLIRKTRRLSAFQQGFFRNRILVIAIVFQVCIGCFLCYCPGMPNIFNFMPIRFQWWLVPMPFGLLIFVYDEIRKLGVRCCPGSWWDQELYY
# Sequence of H^+,K^+-ATPase D137I (P18434 whole entry partner): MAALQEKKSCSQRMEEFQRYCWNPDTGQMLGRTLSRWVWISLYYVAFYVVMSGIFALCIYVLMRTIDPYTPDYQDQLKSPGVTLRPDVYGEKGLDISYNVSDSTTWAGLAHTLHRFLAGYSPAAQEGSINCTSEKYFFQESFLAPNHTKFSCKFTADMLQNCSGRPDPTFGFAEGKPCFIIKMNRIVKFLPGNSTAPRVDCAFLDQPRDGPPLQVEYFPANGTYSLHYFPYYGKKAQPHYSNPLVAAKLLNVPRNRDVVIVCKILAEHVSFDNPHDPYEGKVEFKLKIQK
# Sequence of H^+,K^+-ATPase L139A (P19156 whole entry L140A): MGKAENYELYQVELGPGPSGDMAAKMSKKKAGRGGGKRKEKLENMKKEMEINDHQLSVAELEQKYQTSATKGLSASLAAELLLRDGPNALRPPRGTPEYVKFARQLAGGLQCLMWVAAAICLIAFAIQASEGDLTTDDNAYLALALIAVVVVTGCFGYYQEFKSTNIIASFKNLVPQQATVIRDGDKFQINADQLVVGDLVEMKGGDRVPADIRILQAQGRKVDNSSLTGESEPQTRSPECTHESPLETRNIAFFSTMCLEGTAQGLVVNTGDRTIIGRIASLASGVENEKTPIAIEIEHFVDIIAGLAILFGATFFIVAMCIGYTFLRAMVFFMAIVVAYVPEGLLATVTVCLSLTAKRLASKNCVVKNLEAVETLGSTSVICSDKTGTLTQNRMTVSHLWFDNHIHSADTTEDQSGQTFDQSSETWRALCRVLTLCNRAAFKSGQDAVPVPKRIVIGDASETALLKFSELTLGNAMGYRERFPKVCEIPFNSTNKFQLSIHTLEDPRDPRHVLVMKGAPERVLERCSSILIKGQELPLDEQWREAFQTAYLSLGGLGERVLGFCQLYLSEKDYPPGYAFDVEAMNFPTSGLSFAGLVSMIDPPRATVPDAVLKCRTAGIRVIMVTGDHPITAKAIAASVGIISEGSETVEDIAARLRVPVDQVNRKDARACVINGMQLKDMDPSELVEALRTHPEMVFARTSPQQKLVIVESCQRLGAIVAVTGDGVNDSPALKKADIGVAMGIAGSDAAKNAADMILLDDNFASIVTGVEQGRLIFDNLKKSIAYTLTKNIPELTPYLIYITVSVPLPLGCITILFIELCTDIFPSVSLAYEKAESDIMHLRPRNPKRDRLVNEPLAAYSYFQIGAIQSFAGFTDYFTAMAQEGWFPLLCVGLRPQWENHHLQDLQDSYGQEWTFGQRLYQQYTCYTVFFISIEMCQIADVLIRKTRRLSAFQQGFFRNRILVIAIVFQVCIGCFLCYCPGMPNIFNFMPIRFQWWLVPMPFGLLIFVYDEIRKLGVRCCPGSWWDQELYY
# Sequence of H^+,K^+-ATPase L139A (P18434 whole entry partner): as the sequence (P18434 whole entry partner) above
# Sequence of H^+,K^+-ATPase N138A (P19156 whole entry N139A): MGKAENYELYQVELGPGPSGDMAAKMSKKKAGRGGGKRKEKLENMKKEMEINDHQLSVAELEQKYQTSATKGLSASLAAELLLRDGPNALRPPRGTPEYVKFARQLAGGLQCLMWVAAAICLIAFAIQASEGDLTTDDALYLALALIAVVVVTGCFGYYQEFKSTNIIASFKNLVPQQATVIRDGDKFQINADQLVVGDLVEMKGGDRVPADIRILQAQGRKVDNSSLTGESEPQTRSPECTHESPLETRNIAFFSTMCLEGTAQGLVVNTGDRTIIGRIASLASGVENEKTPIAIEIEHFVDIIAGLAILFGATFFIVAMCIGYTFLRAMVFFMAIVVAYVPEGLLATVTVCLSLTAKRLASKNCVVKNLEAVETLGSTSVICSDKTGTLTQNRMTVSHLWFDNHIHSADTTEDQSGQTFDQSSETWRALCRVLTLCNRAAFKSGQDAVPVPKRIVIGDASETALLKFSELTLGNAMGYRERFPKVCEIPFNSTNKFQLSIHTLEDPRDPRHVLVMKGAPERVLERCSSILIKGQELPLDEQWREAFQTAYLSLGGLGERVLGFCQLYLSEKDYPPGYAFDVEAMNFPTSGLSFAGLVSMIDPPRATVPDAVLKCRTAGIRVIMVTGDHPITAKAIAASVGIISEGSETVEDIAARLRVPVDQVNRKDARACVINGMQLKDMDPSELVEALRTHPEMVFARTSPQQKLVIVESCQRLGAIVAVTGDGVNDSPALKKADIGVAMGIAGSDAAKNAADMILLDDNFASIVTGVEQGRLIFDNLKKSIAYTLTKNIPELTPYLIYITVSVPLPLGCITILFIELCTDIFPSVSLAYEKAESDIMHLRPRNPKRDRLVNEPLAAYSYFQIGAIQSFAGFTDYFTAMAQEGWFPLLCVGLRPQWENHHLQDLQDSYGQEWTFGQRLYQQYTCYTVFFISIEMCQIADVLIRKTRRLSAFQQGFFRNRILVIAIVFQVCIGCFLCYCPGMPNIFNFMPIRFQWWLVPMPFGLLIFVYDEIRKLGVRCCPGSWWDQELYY
# Sequence of H^+,K^+-ATPase N138A (P18434 whole entry partner): as the sequence (P18434 whole entry partner) above
# Sequence of H^+,K^+-ATPase D136F (P19156 whole entry D137F): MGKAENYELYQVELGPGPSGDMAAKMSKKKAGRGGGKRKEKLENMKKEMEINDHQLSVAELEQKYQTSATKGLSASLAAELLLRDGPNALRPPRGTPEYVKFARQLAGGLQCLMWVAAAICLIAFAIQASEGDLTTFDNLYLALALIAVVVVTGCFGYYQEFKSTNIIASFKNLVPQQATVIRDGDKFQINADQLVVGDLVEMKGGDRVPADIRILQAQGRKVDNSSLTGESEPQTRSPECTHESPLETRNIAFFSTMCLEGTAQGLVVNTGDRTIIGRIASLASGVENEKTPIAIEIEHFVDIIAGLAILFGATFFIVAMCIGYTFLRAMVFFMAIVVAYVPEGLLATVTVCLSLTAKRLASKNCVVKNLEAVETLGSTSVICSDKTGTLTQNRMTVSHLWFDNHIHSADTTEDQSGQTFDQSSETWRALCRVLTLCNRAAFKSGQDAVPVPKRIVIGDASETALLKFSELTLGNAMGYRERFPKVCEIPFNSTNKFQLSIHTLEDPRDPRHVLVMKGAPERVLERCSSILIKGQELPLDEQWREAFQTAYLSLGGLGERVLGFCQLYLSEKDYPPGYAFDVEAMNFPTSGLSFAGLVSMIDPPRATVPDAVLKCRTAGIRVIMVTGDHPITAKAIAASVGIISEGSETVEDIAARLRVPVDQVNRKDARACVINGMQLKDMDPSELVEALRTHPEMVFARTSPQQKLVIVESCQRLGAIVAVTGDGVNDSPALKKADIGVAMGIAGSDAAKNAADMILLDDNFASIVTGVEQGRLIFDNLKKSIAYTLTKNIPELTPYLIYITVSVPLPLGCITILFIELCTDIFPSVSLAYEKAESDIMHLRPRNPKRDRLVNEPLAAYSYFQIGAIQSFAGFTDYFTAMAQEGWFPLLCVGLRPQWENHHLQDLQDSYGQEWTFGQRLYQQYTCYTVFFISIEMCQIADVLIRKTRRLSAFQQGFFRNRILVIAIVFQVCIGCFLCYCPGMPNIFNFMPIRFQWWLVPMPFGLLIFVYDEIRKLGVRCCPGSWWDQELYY
# Sequence of H^+,K^+-ATPase D136F (P18434 whole entry partner): as the sequence (P18434 whole entry partner) above
smiles,measurement,setting,value
N#CCc1cnc2c(OCc3ccccc3)cccn12 [SCH-Me^−],-fold increase in K i compared with wild-type,[1],1.0 fold
same,Ki,"[1]; global fitting, mean ± SEM",11 ± 0.1 µM
same,Ki,[2],11 ± 1 µM
same,-fold increase in K i compared with wild-type,[2]; D136A,1.0 fold
same,Ki,[3],5.4 ± 0.5 µM
same,-fold increase in K i compared with wild-type,[3]; D136L,0.5 fold
same,Ki,[4],6.8 ± 0.6 µM
same,-fold increase in K i compared with wild-type,[4]; D136I,0.6 fold
same,Ki,[5],6.7 ± 0.5 µM
same,-fold increase in K i compared with wild-type,[5]; D136F,0.6 fold
same,Ki,[6],61 ± 7 µM
same,-fold increase in K i compared with wild-type,[6]; D137A,5.5 fold
same,Ki,[7],270 ± 100 µM
same,-fold increase in K i compared with wild-type,[7]; D137L,25 fold
same,Ki,[8],170 ± 40 µM
same,-fold increase in K i compared with wild-type,[8]; D137I,16 fold
same,Ki,[9],34 ± 7 µM
same,-fold increase in K i compared with wild-type,[9]; D137F,3.1 fold
same,Ki,[10],0.56 ± 0.08 µM
same,-fold increase in K i compared with wild-type,[10]; N138A,0.05 fold
same,Ki,[11],23 ± 7 µM
same,-fold increase in K i compared with wild-type,[11]; N138L,2.1 fold
same,Ki,[12],0.95 ± 0.23 µM
same,-fold increase in K i compared with wild-type,[12]; N138I,0.09 fold
same,Ki,[13],320 ± 300 µM
same,-fold increase in K i compared with wild-type,[13]; N138F,29 fold
same,Ki,[14],8.7 ± 0.7 µM
same,-fold increase in K i compared with wild-type,[14]; L139A,0.8 fold
same,Ki,[15],2.3 ± 0.3 µM
same,-fold increase in K i compared with wild-type,[15]; L139I,0.2 fold
same,Ki,[16],13 ± 1 µM
same,-fold increase in K i compared with wild-type,[16]; L139F,1.2 fold
same,Ki,[17],13 ± 1 µM
same,-fold increase in K i compared with wild-type,[17]; Y140A,1.2 fold
same,Ki,[18],3.7 ± 0.4 µM
same,-fold increase in K i compared with wild-type,[18]; Y140L,0.3 fold
same,Ki,[19],5 ± 0.8 µM
same,-fold increase in K i compared with wild-type,[19]; Y140I,0.5 fold
same,Ki,[20],21 ± 3 µM
same,-fold increase in K i compared with wild-type,[20]; Y140F,1.9 fold
same,Ki,[21],7.3 ± 0.8 µM
same,-fold increase in K i compared with wild-type,[21]; L141I,0.7 fold
same,Ki,[22],1.6 ± 0.2 µM
same,-fold increase in K i compared with wild-type,[22]; A335G,0.15 fold
same,Ki,[23],740 ± 170 µM
same,-fold increase in K i compared with wild-type,[23]; Y799A,67 fold
same,Ki,[24],31 ± 3 µM
same,-fold increase in K i compared with wild-type,[24]; Y799F,2.8 fold
same,Ki,[25],110 ± 20 µM
same,-fold increase in K i compared with wild-type,[25]; L809F,10 fold
same,Ki,[26],4200 ± 2300 µM
same,-fold increase in K i compared with wild-type,[26]; A335C/C813A,382 fold
same,IC50,[27],54 µM
